Legend:
[1] = test system: prostacyclin receptor (CNS) in the thalamus ([^3 H] isocarbacyclin receptor); assay: Displacement test relative to tritium-labelled isocarbacyclin, thalamus (CNS), autoradiography of frozen brain sections; type: binding, rat; conditions: for Binding ratio to [^3 H] isocarbacyclin receptor: thalamus (CNS), 10 nM [^3 H]isocarbacyclin, 4° C., 2 h, pH 7.4
Method: (§1) Blood ingredients were removed from the brain of a rat by systemic perfusion, and were frozen, thus preparing a frozen section having a thickness of 10 μm. This section was incubated with 10 nM [^3 H]isocarba cyclin and isocarbacyclin derivatives at various concentrations, at 4° C. for two hours in 50 mM Tris/HCl pH 7.4 and 20 mM MgCl2 solution. After incubation and washing, the solution was dried, thereby preparing an autoradiography film of the section. A displacement value for each derivative was determined by quantitative analysis of the autoradiography (n=at least 4).
1) The results in the thalamus (CNS) are shown in Tables 1 and 2 for the following compounds: [drawing 27]

[2] = target: T1, prostacyclin receptor (PNS) in the medulla oblongata nucleus ([^3 H] isocarbacyclin receptor) (Rattus norvegicus, UniProt P43253); assay: Displacement test relative to tritium-labelled isocarbacyclin, medulla oblongata nucleus (PNS), autoradiography of frozen brain sections; conditions: 10 nM [^3 H]isocarbacyclin, 4° C., 2 h, pH 7.4, read-out: Binding ratio to [^3 H] isocarbacyclin receptor; for activity at 0.3 µM: un-labelled compound 3 × 10^-7 M; for activity at 0.03 µM: un-labelled compound 3 × 10^-8 M; for activity at 1 µM: un-labelled compound 10^-6 M; for activity at 0.01 µM: un-labelled compound 10^-8 M; for activity at 0.003 µM: un-labelled compound 3 × 10^-9 M; for activity at 0.1 µM: un-labelled compound 10^-7 M
T1 construct: Blood ingredients were removed from the brain of a rat by systemic perfusion; from tissue; host or cells: rat brain, frozen sections, medulla oblongata nucleus (nucleus solitarius) read by autoradiography
T1 sequence (P43253 whole entry, the tested form may be a part): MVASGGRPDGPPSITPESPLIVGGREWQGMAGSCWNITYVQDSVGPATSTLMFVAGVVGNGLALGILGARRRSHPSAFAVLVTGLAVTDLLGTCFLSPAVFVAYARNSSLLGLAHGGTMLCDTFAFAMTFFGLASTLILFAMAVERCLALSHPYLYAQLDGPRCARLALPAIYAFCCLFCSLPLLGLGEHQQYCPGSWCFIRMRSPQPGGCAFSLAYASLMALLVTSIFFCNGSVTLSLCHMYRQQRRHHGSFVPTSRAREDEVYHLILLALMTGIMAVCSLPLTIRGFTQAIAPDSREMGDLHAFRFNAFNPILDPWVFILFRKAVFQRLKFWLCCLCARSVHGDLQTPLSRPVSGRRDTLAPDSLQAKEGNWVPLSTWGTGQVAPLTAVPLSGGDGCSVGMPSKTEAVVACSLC
Method: as §1

[3] = test system: platelets; assay: Platelet aggregation inhibiting activity (ADP-induced, platelet rich plasma); type: cell-based, rat; conditions: for IC50: rat platelet rich plasma, 100 μM ADP, 5 μl, 37° C., 1 min preincubation
Method: Blood was totally taken from the abdominal aorta of an anesthetized rat (body weight: 500 g). Then, 1/10 volume part of 3.8% sodium citrate was added to the sampled blood and the mixture was centrifugally separated at 1,000 rpm for ten minutes to achieve an upper layer of platelet rich plasma (PRP). The lower layer was then further centrifugally separated at 3,000 rpm for ten minutes to prepare platelet poor plasma (PPP). The number of platelets in PRP was measured, and PPP was diluted to adjust the number to […] to serve as a platelet solution. The platelet solution was placed in an amount of 90 μl into a cuvette, and the drug to be tested in an amount of […] was added for incubation at 37° C. for one minute. Then, an aggregation agent (100 μM ADP) in an amount of 5 μl was added to cause aggregation of platelets, and changes in […] were measured. Control of aggregation activity was conducted by using turbidity upon addition of physiological saline.

[4] = test system: platelets aggregation / vasodilation; conditions: compared with natural prostacyclin; cited from earlier work
[5] = neutral or oxidizing conditions; cited from earlier work
[6] = test system: binding site of iloprost in platelets; conditions: cited from earlier work
[7] = test system: prostacyclin binding sites in cerebral hemisphere; conditions: autoradiography, frozen cryostat sections; cited from earlier work
[8] = test system: nervous system; conditions: cited from earlier work
[9] = test system: dopamine D1 receptors; conditions: cited from earlier work
[10] = un-labelled compound 3 × 10^-7 M, 0.3 µM
[11] = un-labelled compound 3 × 10^-8 M, 0.03 µM
[12] = un-labelled compound 3 × 10^-9 M
[13] = un-labelled compound 10^-6 M, 1 µM
[14] = un-labelled compound 10^-7 M, 0.1 µM

In the case of `Cc1cccc(C[C@@H](O)/C=C/[C@@H]2[C@H]3CC(CCCCC(=O)O)=C[C@H]3C[C@H]2O)c1` [Compound A, 15R-16-(3-methylphenyl)-17, 18, 19, 20-tetranolisocarbacycline], the “binding to the thalamic prostacyclin receptor (CNS)” value ([1]; in words) is reported as “firmly bound to the thalamic prostacyclin receptor (CNS)”, the “activity relative to the prostacyclin receptor (CNS) in the thalamus” value ([1]; in words, compared with isocarbacyclin) is reported as “an activity stronger than that of isocarbacyclin” and the “Binding ratio to [^3 H] isocarbacyclin receptor” value (“Binding ratio” for short) [1, 10] is reported as 25.4%. For the same compound, the “Binding ratio” value [1, 11] was 67.0%, the “Binding ratio” value [1, 12] was 97.4% and the “Binding ratio” value [1, 13] was 15.7%. For the same compound, the “Binding ratio” value [1, 14] was 48.3%, the “Binding ratio” value ([1]; un-labelled compound 10^-8 M) was 89.2% and the activity at 0.3 µM [2] was 69.8%. For the same compound, the activity at 0.03 µM [2] was 79.3%, the activity at 1 µM [2] was 52.5% and the activity at 0.01 µM [2] was 74.1%. The activity at 0.001 µM ([2]; un-labelled compound 10^-9 M (so in the source)) was 84.7%, the “platelet aggregation inhibiting activity” value ([3]; in words) was “almost no platelet aggregation inhibiting activity” and the IC50 [3] was > 400 nM.

With `Cc1cccc(C[C@H](O)/C=C/[C@@H]2[C@H]3CC(CCCCC(=O)O)=C[C@H]3C[C@H]2O)c1` [Compound B] the “Binding ratio” value [1, 10] was 36.6%, the “Binding ratio” value [1, 11] was 84.6% and the “Binding ratio” value [1, 12] was 98.6%. The “Binding ratio” value [1, 13] was 20.1%, the “Binding ratio” value [1, 14] was 58.0% and the “Binding ratio” value ([1]; un-labelled compound 10^-8 M) was 93.9%. The activity at 0.3 µM [2] was 39.5%, the activity at 0.03 µM [2] was 80.5% and the activity at 0.003 µM [2] was 96.6%. For the same compound, the activity at 1 µM [2] was 33.8%, the activity at 0.1 µM [2] was 54.8% and the activity at 0.01 µM [2] was 88.3%. For the same compound, the IC50 [3] was 19 nM.

With `Cc1cccc(CCC[C@@H](O)/C=C/[C@@H]2[C@H]3CC(CCCCC(=O)O)=C[C@H]3C[C@H]2O)c1` [Compound C] the “Binding ratio” value [1, 10] was 73.3%, the “Binding ratio” value [1, 11] was 93.8% and the “Binding ratio” value [1, 12] was 98.7%. For the same compound, the “Binding ratio” value [1, 13] was 48.1%, the “Binding ratio” value [1, 14] was 85.9% and the “Binding ratio” value ([1]; un-labelled compound 10^-8 M) was 96.1%. For the same compound, the activity at 0.3 µM [2] was 71.8%, the activity at 0.03 µM [2] was 89.9% and the activity at 0.003 µM [2] was 95%. For the same compound, the activity at 1 µM [2] was 53.5%, the activity at 0.1 µM [2] was 81.3% and the activity at 0.01 µM [2] was 92%.

For `Cc1cccc(CCC[C@H](O)/C=C/[C@@H]2[C@H]3CC(CCCCC(=O)O)=C[C@H]3C[C@H]2O)c1` [Compound D], the “Binding ratio” value [1, 10] was 94.1%, the “Binding ratio” value [1, 11] was 98.4% and the “Binding ratio” value [1, 12] was 101.1%. For the same compound, the “Binding ratio” value [1, 13] was 88.5%, the “Binding ratio” value [1, 14] was 100.8% and the “Binding ratio” value ([1]; un-labelled compound 10^-8 M) was 99.8%. For the same compound, the activity at 0.3 µM [2] was 45.8%, the activity at 0.03 µM [2] was 80.6% and the activity at 0.003 µM [2] was 96.9%. The activity at 1 µM [2] was 34.4%, the activity at 0.1 µM [2] was 55.6% and the activity at 0.01 µM [2] was 92.8%.

For `CCCCC[C@H](O)/C=C/[C@@H]1[C@H]2CC(CCCCC(=O)O)=C[C@H]2C[C@H]1O` [Isocarbacyclin, 9(O)-methano-Δ^6(9α) prostaglandin I1], the “Binding ratio” value [1, 10] was 34.7%, the “Binding ratio” value [1, 11] was 76.4% and the “Binding ratio” value [1, 12] was 99.2%. For the same compound, the “Binding ratio” value [1, 13] was 19.3%, the “Binding ratio” value [1, 14] was 62.7% and the “Binding ratio” value ([1]; un-labelled compound 10^-8 M) was 94.5%. The activity at 0.3 µM [2] was 22.5%, the activity at 0.03 µM [2] was 57.3% and the activity at 0.003 µM [2] was 94%. It also gave an activity at 1 µM [2] of 8%, an activity at 0.01 µM [2] of 79% and an IC50 [3] of 2.5 nM. The “platelets aggregation inhibiting functions and vasodilating antihypertensive effects” value [4] was “strong platelets aggregation inhibiting functions and vasodilating antihypertensive effects and other biological activities well comparable with those of natural prostacyclin”.

For `CCCCC[C@H](O)/C=C/[C@@H]1[C@H]2C/C(=C/CCCC(=O)O)O[C@H]2C[C@H]1O` [Natural prostacyclin], the chemical stability [5] is listed as “easily inactivated under neutral or oxidizing conditions”.

For `CCCCC[C@H](O)/C=C/[C@H]1[C@H](O)CC(=O)[C@@H]1CCCCCCC(=O)O` [Prostaglandin E1, reference compound], the IC50 [3] is listed as 63 nM and the “reaction with the binding site of iloprost” value [6] is listed as “the binding site of iloprost reacts also with PGE1”.

In the case of `CC#CCC(C)[C@H](O)/C=C/[C@@H]1[C@H]2C/C(=C/CCCC(=O)O)C[C@H]2C[C@H]1O` (some centres unmarked) [[^3 H] iloprost], the “prostacyclin binding sites found” value [7] is given as “prostacyclin binding sites in corpus striatum, amygdala, hippocampus and part of the cerebral cortex”.

For `CC#CCC(C)[C@H](O)/C=C/[C@@H]1[C@H]2C/C(=C/CCCC(=O)O)C[C@H]2C[C@H]1O` (some centres unmarked) [iloprost], the “effects on the nervous system” value [8] is given as “sedation, anticonvulsation, antihypoxemia (prolongation effects in hypoxemia) and synchronizing induction effects of brain waves antagonized by amphetamine” and the “prevention of the binding of dopamine D1 receptors” value [9] is given as “prevention of the binding of dopamine D1 receptors”.
